Source: paper PMC8421423, “Cellular model system to dissect the isoform-selectivity of Akt inhibitors” (Nature Communications, 2021)
Several values for one entry are separate records, joined by “and”; a condition that tells them apart may be missing. Equal entries are not always repeated. Where two headings read alike, the source gives them in different places.

Key:
parental Ba/F3 cells = assay: CellTiter-Glo cell viability assay; assay type: cell-based, murine; conditions: for cell viability: CTG, parental
Description: (§1) On day 0, cells were plated into white 384-well cell culture plates (Greiner Bio-One) using a Multidrop reagent dispenser (Thermo Fisher Scientific) at cell numbers that ensure linear and optimal luminescent signal intensity (Ba/F3myr-Akt1: 600 cells/well, Ba/F3myr-Akt2: 800 cells/well, Ba/F3myr-Akt3: 800 cells/well). […] Cell viability was analyzed on day 4 using the CellTiter-Glo Assay (Promega) as per the manufacturer’s instructions. […] All experimental points were measured in duplicates for each plate and were replicated in at least three plates.

Akt1 [1] = target: T1, Akt1 (Homo sapiens, UniProt P31749, E114A/E115A/E116A); assay: ESI-MS/MS of tryptic digest (modified cysteine residues); assay type: binding; conditions: 5-fold molar excess of inhibitor
T1 construct: AKT1(2–446, E114/115/116A); His6 with TEV protease recognition site (N, cleaved yes); made in house; host or cells: Spodoptera frugiperda (Sf9)
T1 sequence (P31749 2-446 E114A/E115A/E116A): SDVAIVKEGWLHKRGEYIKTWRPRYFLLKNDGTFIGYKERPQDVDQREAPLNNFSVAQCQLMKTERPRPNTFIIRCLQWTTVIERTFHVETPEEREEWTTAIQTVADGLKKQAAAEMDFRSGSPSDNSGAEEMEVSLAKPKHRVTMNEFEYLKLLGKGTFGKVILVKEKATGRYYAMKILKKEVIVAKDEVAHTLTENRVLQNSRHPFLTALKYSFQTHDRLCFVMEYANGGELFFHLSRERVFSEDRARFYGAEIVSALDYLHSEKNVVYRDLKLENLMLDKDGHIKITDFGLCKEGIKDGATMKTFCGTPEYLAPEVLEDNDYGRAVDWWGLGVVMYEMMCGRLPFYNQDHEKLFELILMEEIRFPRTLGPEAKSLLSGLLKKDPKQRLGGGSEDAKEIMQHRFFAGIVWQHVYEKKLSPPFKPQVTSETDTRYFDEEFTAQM
Description: ESI-MS/MS samples were prepared as stated above followed by steps of reduction, alkylation, and tryptic digest. The digested samples were stage tip-purified using C18 tips and according to a protocol described elsewhere. Subsequently, samples were thawed, dissolved in 20 μL of 0.1% TFA in water, sonicated at room temperature for 15 min, and centrifuged at 15,000×g for 1 min shortly before analysis. In all, 3 μL of sample were loaded onto a pre-column cartridge and desalted for 5 min using 0.1% TFA in water as eluent at a flow rate of 30 μL/min. The samples were back-flushed from the pre-column to the nano-HPLC column during the whole analysis. Elution was performed using a gradient starting at 5% B with a final composition of 30% B after 35 min (flow rate 300 nL/min) using 0.1% formic acid in water as eluent A and 0.1% formic acid in acetonitrile as eluent B and a column temperature of 40 °C. […] During the complete gradient cycle, a typical TOP10 shot-gun proteomics method for the MS and MS/MS analysis was used. For full scan MS experiments a mass range of m/z 300–1650 was scanned with a resolution of 70000. MS/MS experiments were followed by up to 10 high energy collision dissociation (HCD) MS/MS scans with a resolution of 17,500 of the most intense at least doubly charged ions. Data evaluation was performed using MaxQuant[50]. Spectra were searched against the specific Akt sequence and a contamination database using a false discovery rate of 1% on peptide and protein level using a decoy database for determination of the false discovery rate. For database search oxidation of methionine and N-terminal acetylation of proteins, carbamidomethylation of cysteines, and artificial modification of cysteines were defined as variable modifications.

Ba/F3^myr-Akt1 cells = assay: CellTiter-Glo cell viability assay; conditions: for Log ratio EC50 [Akt] / EC50 [Akt], Akt1 / Akt2: cell viability assay Ba/F3 myr-Akt cells, log units
Ba/F3^myr-Akt2 cells = assay: CellTiter-Glo cell viability assay
Ba/F3^myr-Akt3 cells = assay: CellTiter-Glo cell viability assay; conditions: for Log ratio EC50 [Akt] / EC50 [Akt], Akt3 / Akt2: cell viability assay Ba/F3 myr-Akt cells, log units
Akt1 [2] = target: Akt1 (Homo sapiens, UniProt P31749); assay: STK HTRF KinEASE activity-based assay (IC50); conditions: for Log ratio IC50 [Akt] / IC50 [Akt], Akt1 / Akt2: biochemical activity based assay, log units
Akt1 (Homo sapiens, UniProt P31749), sequence (P31749 whole entry): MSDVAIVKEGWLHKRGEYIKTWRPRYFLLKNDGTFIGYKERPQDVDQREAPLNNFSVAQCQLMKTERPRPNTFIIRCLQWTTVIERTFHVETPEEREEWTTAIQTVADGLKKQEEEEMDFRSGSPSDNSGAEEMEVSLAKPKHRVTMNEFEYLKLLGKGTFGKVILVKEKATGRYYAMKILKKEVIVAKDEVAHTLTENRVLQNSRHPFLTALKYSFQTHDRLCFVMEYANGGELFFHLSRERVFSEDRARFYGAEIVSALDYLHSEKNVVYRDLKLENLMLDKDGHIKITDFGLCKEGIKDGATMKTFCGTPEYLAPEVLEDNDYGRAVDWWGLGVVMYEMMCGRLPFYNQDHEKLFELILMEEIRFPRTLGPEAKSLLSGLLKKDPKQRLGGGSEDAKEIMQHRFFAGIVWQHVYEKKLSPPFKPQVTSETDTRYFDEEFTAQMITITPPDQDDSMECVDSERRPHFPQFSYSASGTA

Akt2 = Akt2 (Homo sapiens, UniProt P31751); assay: STK HTRF KinEASE activity-based assay (IC50)
Akt2, sequence (P31751 whole entry): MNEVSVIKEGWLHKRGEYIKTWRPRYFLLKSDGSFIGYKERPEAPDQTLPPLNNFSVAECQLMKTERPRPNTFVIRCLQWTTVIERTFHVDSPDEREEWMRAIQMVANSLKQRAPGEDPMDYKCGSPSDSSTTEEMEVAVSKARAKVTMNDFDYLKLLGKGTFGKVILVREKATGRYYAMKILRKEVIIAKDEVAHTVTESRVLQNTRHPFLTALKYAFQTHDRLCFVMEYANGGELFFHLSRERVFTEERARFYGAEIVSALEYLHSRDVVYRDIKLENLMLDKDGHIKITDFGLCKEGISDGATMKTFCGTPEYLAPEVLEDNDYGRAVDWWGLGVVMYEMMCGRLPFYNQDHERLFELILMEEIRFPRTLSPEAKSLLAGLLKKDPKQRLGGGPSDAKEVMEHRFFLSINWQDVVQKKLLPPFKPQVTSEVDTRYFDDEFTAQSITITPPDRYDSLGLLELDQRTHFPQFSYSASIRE

Akt3 = Akt3 (Homo sapiens, UniProt Q9Y243); assay: STK HTRF KinEASE activity-based assay (IC50)
Akt3, sequence (Q9Y243 whole entry): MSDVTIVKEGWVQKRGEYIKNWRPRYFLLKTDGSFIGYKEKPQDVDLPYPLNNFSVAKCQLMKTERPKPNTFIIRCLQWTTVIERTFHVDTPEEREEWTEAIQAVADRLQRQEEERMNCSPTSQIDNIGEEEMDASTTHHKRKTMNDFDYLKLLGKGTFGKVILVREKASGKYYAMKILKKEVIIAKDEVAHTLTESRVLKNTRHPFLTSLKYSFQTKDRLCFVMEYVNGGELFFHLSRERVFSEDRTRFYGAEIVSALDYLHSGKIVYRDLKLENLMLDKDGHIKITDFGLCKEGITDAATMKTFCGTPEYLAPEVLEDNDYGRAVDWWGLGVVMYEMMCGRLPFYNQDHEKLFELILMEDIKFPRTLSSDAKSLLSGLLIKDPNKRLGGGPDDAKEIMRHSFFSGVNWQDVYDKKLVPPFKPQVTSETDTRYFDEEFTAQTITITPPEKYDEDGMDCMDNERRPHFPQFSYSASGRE
Description: The biochemical half maximal inhibitory concentrations (IC50) were determined with the STK HTRF KinEASE assay (Cisbio) according to the manufactor’s instructions. Briefly: 5 µL Kinase solution and 2.5 µL inhibitor solution (8% DMSO in HTRF buffer) were incubated for 1 h before the reaction was started by addition of 2.5 µL starting solution containing ATP and substrate peptide. […] After reaction completion (Akt1: 60 min, Akt2: 20 min, Akt3: 15 min), 10 µL of stop solution were added. […] The quotient of both intensities were recorded at eight different inhibitor concentrations and data fit to a Hill 4-parameter equation with Quattro software suite (Quattro Research GmbH, Martinsried, Germany). Each reaction was performed in duplicates and at least three independent determinations of each IC50 were made.

[3] = CellTiter-Glo cell viability assay; assay type: cell-based, murine; conditions: mouse, CTG, parental, single replicates
Description: as §1

[4] = tested on: pAkt^S473 and downstream targets in Ba/F3 myr-Akt3; assay: Western blot analysis, Ba/F3 myr-Akt3 cells; assay type: cell-based, murine; conditions: Ba/F3 myr-Akt3, 4-h treatment
Description: Cells were seeded into six-well tissue culture plates (Sarstedt) (BaF3 myr-Akt1/2/3: 10^6 cells/well, PANC1: 250.000 cells/well). After 24 h incubation, cells were treated with various concentrations of inhibitors or DMSO and incubated for additional 4.5 h before cells were washed twice with ice-cold PBS. Cell lysis was initiated by addition of 100 μL RIPA buffer (Cell Signaling Technology) per well supplemented with phosphatase and protease inhibitor cocktails (Sigma) followed by incubation on ice for 20 min. Cells were then harvested by scraping (PANC1) or centrifugation (BaF3). Whole cell lysates were cleared by centrifugation at 14,000×g/4 °C for 10 min and transferred into fresh, pre-cooled microcentrifuge tubes. Protein concentrations were determined using the Pierce BCA protein assay (Thermo) as per manufacturer’s instructions. Equal amounts of protein were separated by SDS-PAGE and transferred to Immobilon-FL PVDF membranes (Merck Millipore) using Pierce™ 1-step transfer buffer (Thermo) and the Pierce™ Power Blotter (Thermo). Membranes were washed for 5 min with ddH2O, blocked with Intercept®Blocking Buffer TBS (Li-Cor) for 1 h at room temperature, and then incubated with primary antibodies diluted in Intercept®Blocking Buffer TBS overnight at 4 °C with gentle agitation. […]

[5] = tested on: pAkt^S473 and downstream targets in Ba/F3 myr-Akt1; conditions: Ba/F3 myr-Akt1, 4-h treatment
[6] = Mus musculus, BaF3, CTG, parental BaF3 cell line, read-out: EC50 BaF3
[7] = Mus musculus, BaF3, parental cells, mean of replicates, read-out: CTG BaF3, Mean
[8] = Mus musculus, BaF3, parental cells, single replicates, read-out: CTG BaF3, individual determinations
[9] = parental cells, single replicates, read-out: CTG BaF3, individual determinations
[10] = Mus musculus, read-out: CTG BaF3myr-Akt1, Mean, mean of replicates
[11] = Mus musculus, read-out: CTG BaF3myr-Akt1, individual determinations, single replicates
[12] = read-out: CTG BaF3myr-Akt1, individual determinations, single replicates
[13] = read-out: CTG BaF3myr-Akt2, individual determinations, single replicates
[14] = Mus musculus, read-out: CTG BaF3myr-Akt3, Mean, mean of replicates
[15] = Mus musculus, read-out: CTG BaF3myr-Akt3, individual determinations, single replicates
[16] = read-out: CTG BaF3myr-Akt3, individual determinations, single replicates
[17] = HTRF IC50 Akt1, Mean, mean of replicates
[18] = HTRF IC50 Akt1, individual determinations, single replicates
[19] = IC50 Akt1, HTRF, ATP at KM, 1 h preincubation
[20] = HTRF IC50 Akt2, individual determinations, single replicates
[21] = IC50 Akt2, HTRF, ATP at KM, 1 h preincubation
[22] = IC50 Akt3, HTRF, ATP at KM, 1 h preincubation

Row | Compound | EC50 (parental Ba/F3 cells; [6]) [µM] | EC50 (parental Ba/F3 cells; [7]) [µM] | EC50 (parental Ba/F3 cells; [8]) [µM] | EC50 (parental Ba/F3 cells; [9]) [µM] | modified cysteine residues in Akt1 (MS/MS) (Akt1 [1]) | EC50 (Ba/F3^myr-Akt1 cells; [10]) [µM] | EC50 (Ba/F3^myr-Akt1 cells; [11]) [µM] | Log ratio EC50 [Akt] / EC50 [Akt], Akt1 / Akt2 (Ba/F3^myr-Akt1 cells) | EC50 (Ba/F3^myr-Akt1 cells; [12]) | EC50 (Ba/F3^myr-Akt2 cells; [13]) | EC50 (Ba/F3^myr-Akt3 cells; [14]) [µM] | EC50 (Ba/F3^myr-Akt3 cells; [15]) [µM] | Log ratio EC50 [Akt] / EC50 [Akt], Akt3 / Akt2 (Ba/F3^myr-Akt3 cells) | EC50 (Ba/F3^myr-Akt3 cells; [16]) | IC50 (Akt1 [2]; [17]) [µM] | IC50 (Akt1 [2]; [18]) | IC50 (Akt1 [2]; [19]) [µM] | Log ratio IC50 [Akt] / IC50 [Akt], Akt1 / Akt2 (Akt1 [2]) | IC50 (Akt2; [20]) | IC50 (Akt2; [21]) [µM] | also measured
1 | C=CC(=O)Nc1ccc2[nH]c(=O)n(C3CCN(Cc4ccc(-c5ncc(CO)cc5-c5ccccc5)cc4)CC3)c2c1 [compound 3] | > 30 | > 30 | > 30 | > 30 | Cys296 and Cys310 | 28.3 | 26.6 | 0.13 | 28.3 µM | 21.2 µM and 12.4 µM and > 30 µM | > 30 | > 30 | -0.15 | > 30 µM | 0.184 | 0.133 µM and 0.103 µM and 0.189 µM and 0.31 µM | 0.186 ± 0.079 | -0.71 | 1.02 µM and 0.724 µM and 1.14 µM | 0.961 ± 0.174 | EC50 BaF3myr-Akt1 (Ba/F3^myr-Akt1 cells; CTG): generally inactive; EC50 BaF3myr-Akt3 (Ba/F3^myr-Akt3 cells; CTG): generally inactive; EC50 (Ba/F3^myr-Akt3 cells; Mus musculus, read-out: EC50 BaF3myr-Akt3, CTG): > 30 µM; IC50 (Akt2; HTRF IC50 Akt2, Mean, mean of replicates): 0.961 µM; IC50 (Akt3; [22]): > 20 µM
2 | C=CC(=O)Nc1ccc2[nH]c(=O)n(C3CCN(Cc4ccc(-c5ncc(C(=O)NC)cc5-c5ccccc5)cc4)CC3)c2c1 [compound 6] | > 30 | > 30 | > 30 | > 30 | Cys296 and Cys310 | 9.61 | 7.7 | -0.05 | 11.7 µM and 9.47 µM | 7.18 µM and 12.6 µM | – | > 30 | -0.38 | 22.6 µM and 24.5 µM | 0.112 | 0.113 µM and 0.133 µM and 0.0909 µM | 0.112 ± 0.021 | 0.02 | 0.0841 µM and 0.151 µM and 0.0886 µM | 0.108 ± 0.031 | EC50 (Ba/F3^myr-Akt2 cells; Mus musculus, read-out: CTG BaF3myr-Akt2, Mean, mean of replicates): 10.8 µM; EC50 (Ba/F3^myr-Akt2 cells; Mus musculus, read-out: CTG BaF3myr-Akt2, individual determinations, single replicates): 12.6 µM; loss of activity compared to the ester version (Akt1 [2]; Akt1, biochemical IC50): 4 fold; IC50 (Akt3; HTRF IC50 Akt3, Mean, mean of replicates): 5.75 µM; IC50 (Akt3; HTRF IC50 Akt3, individual determinations, single replicates): 5.69 µM and 3.89 µM and 7.68 µM; IC50 (Akt3; [22]): 5.75 ± 1.55 µM
3 | C=CC(=O)Nc1ccc2[nH]c(=O)n(C3CCN(Cc4ccc(-c5nc6cc[nH]c(=O)c6cc5-c5ccccc5)cc4)CC3)c2c1 [Borussertib, reference compound] | – | – | – | – | – | 0.44 | 0.341 | – | 0.491 µM and 0.488 µM | – | 6.84 | 6.16 | – | 6.18 µM and 7.62 µM and 7.38 µM | – | – | – | – | – | – | viability at 3 days, 0.0001 µM ([3]; 0.1 nM, read-out: cell viability): 98.5%; viability at 3 days, 5 µM ([3]; 5000 nM): 108%; cell viability (parental Ba/F3 cells; 0.1 nM, single replicates, 0.0001 µM): 106.4 % of control and 91.0 % of control; cell viability (parental Ba/F3 cells; 5000 nM, single replicates, 5 µM): 102.2 % of control and 91.4 % of control; EC50 (parental Ba/F3 cells; Mus musculus, BaF3, read-out: CTG BaF3, Mean, parental cells, mean of replicates): 20.1 µM; EC50 (parental Ba/F3 cells; read-out: CTG BaF3, individual determinations, parental cells, single replicates): 16.8 µM and 10.9 µM and 24.4 µM; pAkt and downstream targets (immunoblot) [4]: dose-dependent reduction of pAkt; pAkt and downstream targets (immunoblot) [5]: dose-dependent reduction of pAkt; cell viability (Ba/F3^myr-Akt1 cells; CTG, myr-Akt1, 0.1 nM, single replicates, 0.0001 µM): 99.2 % of control and 105.4 % of control; cell viability (Ba/F3^myr-Akt1 cells; CTG, myr-Akt1, 5000 nM, single replicates, 5 µM): 3.1 % of control and 7.0 % of control and 4.5 % of control; viability at 0.0001 µM (Ba/F3^myr-Akt1 cells; Mus musculus, read-out: cell viability, CTG, myr-Akt1, 0.1 nM, single replicates): 90%; cell viability (Ba/F3^myr-Akt3 cells; CTG, myr-Akt3, 0.1 nM, single replicates, 0.0001 µM): 96.6 % of control and 95.9 % of control; cell viability (Ba/F3^myr-Akt3 cells; CTG, myr-Akt3, 5000 nM, single replicates, 5 µM): 70.7 % of control and 65.0 % of control; viability at 5 µM (Ba/F3^myr-Akt3 cells; Mus musculus, read-out: cell viability, CTG, myr-Akt3, 5000 nM, single replicates): 73.8%
